For one assay, the target named is BACE1 (Homo sapiens (Human), UniProt P56817). Nature of the assay: Cellular Aβ-lowering assay (Aβ40 ELISA, HEK293 cells expressing human APP695). It is filed as cell-based. The conditions noted are these: HEK293 cells stably transfected with human APP695; 18-20 hrs incubation; Aβ40 in supernatant; read-out: BACE1 cell act. Aβ40 IC50. As to the method: Cellular Aβ-Lowering Assay:
Human HEK293 cells which are stably transfected with a vector expressing a cDNA of the human APP wt gene (APP695) were used to assess the potency of the compounds in a cellular assay. The cells were seeded in 96-well microtiter plates in cell culture medium (Iscove, plus 10% (v/v) fetal bovine serum, glutamine, penicillin/streptomycin) to about 80% confluence and the compounds were added at a 10× concentration in 1/10 volume of medium without FCS containing 8% DMSO (final concentration of DMSO was kept at 0.8% v/v). After 18-20 hrs incubation at 37° C. and 5% CO2 in a humidified incubator the culture supernatant was harvested for the determination of […] concentrations. 96well ELISA plates (e.g., Nunc MaxiSorb) were coated with monoclonal antibody which specifically recognize the C-terminal end of […] (Brockhaus et al., NeuroReport 9, 1481-1486; 1998). After blocking of non-specific binding sites with e.g. 1% BSA and washing, the culture supernatants were added in suitable dilutions together with a horseradish peroxidase-coupled Aβ detection antibody (e.g., antibody 4G8, Senetek, Maryland Heights, Mo.) and incubated for 5 to 7 hrs. Subsequently the wells of the microtiter plate were washed extensively with Tris-buffered saline containing 0.05% Tween 20 and the assay was developed with tetramethylbenzidine/H2O2 in citric acid buffer. After stopping the reaction with one volume 1 N H2SO4 the reaction was measured in an ELISA reader at 450 nm wavelength. The concentrations of Aβ in the culture supernatants were calculated from a standard curve obtained with known amounts of pure Aβ peptide.

In the next assay the target is BACE2 (Rattus norvegicus (Rat), UniProt Q6IE75). Briefly: Assay for BACE inhibition by measuring cellular TMEM27 cleavage (INS-TMEM27 cells, ELISA). The conditions noted are these: INS-TMEM27 (INS1e-derived) cells; shed TMEM27 in supernatant; read-out: BACE2 cell act. IC50. It is filed as cell-based. The text has this:
Assay for BACE Inhibition by Measuring Cellular TMEM27 Cleavage:
The assay uses the principle of inhibition of human TMEM27 cleavage by endogenous cellular BACE2 in the Ins1e rat cell line and shedding from the cell surface into the culture medium, followed by detection in an ELISA assay. Inhibition of BACE2 prevents the cleavage and shedding in a dose-dependent manner
The stable cell line “INS-TMEM27” represents an INS1e-derived cell line with inducible expression (using the TetOn system) of full-length hTMEM27 in a doxycycline-dependent manner. The cells are cultured throughout the experiment in RPMI1640 +Glutamax (Invitrogen) Penicillin/Streptomycin, 10% Fetal bovine serum, […], […], 100 micrograms/ml G418 and 100 microgram/ml hygromycin and are grown inadherent culture at 37° C. in a standard CO2 cell culture incubator.
INS-TMEM27 cells are seeded in 96-well plates. After 2 days in culture, BACE2 inhibitor is added in a range of concentrations as required by the assay and after a further two hours, doxycycline is added to a final concentration of 500 ng/ml. The cells are incubated for a further 46 hours and the supernatant harvested for detection of shed TMEM27.
An ELISA assay (using a pair of mouse anti-human-TMEM27 antibodies, raised against the extracellular domain of TMEM27) is used for detection of TMEM27 in the culture medium. An EC50 for BACE2 inhibition is calculated using the ELISA readout for each inhibitor concentration with standard curve-fitting software such as XLFit for the Excel spreadsheet program.
On the technique in general: ELISA stands for enzyme-linked immunosorbent assay.

Chain of BACE1 (P56817 46-501): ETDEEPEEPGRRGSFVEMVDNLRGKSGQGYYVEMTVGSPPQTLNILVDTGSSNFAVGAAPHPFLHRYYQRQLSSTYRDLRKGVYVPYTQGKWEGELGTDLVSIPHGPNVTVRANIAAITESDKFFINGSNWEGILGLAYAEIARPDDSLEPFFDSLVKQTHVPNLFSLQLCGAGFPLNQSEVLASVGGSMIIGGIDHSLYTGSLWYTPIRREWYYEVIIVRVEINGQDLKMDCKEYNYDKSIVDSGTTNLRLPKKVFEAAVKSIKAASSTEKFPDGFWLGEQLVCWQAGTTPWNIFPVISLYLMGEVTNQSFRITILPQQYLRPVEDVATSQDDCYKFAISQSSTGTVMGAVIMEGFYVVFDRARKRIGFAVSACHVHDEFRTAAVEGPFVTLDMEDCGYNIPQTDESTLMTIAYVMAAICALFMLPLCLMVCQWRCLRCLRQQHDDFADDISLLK
Chain of BACE2 (Q6IE75 63-514): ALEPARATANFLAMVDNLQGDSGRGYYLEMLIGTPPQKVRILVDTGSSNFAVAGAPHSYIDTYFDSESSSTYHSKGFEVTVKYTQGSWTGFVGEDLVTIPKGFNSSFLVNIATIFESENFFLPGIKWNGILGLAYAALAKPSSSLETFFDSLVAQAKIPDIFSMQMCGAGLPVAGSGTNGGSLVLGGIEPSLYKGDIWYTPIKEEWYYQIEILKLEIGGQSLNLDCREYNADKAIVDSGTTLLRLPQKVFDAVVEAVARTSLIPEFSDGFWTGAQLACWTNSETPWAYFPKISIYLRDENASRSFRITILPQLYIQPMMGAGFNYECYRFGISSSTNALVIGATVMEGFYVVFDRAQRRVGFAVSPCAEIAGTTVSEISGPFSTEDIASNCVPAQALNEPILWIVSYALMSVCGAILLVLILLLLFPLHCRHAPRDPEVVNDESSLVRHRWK

As for `CC(C)CCNc1ccc(F)c([C@]2(C)COCC(N)=N2)c1` [Example 6, (R)-5-(2-fluoro-5-(isopentylamino)phenyl)-5-methyl-5,6-dihydro-2H-1,4-oxazin-3-amine], the IC50 on BACE1 was found to be 1360 nM; at BACE2 it was 605 nM.

Consider `C[C@@]1(c2cc(NCCC(F)(F)F)ccc2F)COCC(N)=N1` [Example 12, (R)-5-(2-fluoro-5-(3,3,3-trifluoropropylamino)phenyl)-5-methyl-5,6-dihydro-2H-1,4-oxazin-3-amine], for which the values for the IC50 on BACE1 and at BACE2 were 1090 nM and 2900 nM, respectively.

Consider `C[C@@]1(c2cc(NC3CCC3)ccc2F)COCC(N)=N1` [Example 14, (R)-5-(5-Cyclobutylamino-2-fluoro-phenyl)-5-methyl-5,6-dihydro-2H-[1,4]oxazin-3-ylamine], for which the IC50 on BACE1 was found to be 260 nM; at BACE2 it was 1170 nM.

`C[C@@]1(c2cc(NC3CCCC3)ccc2F)COCC(N)=N1` [Example 15, (R)-5-(5-(cyclopentylamino)-2-fluorophenyl)-5-methyl-5,6-dihydro-2H-1,4-oxazin-3-amine]: the IC50 at BACE1 came out at 120 nM; at BACE2, 170 nM.

`C[C@@]1(c2cc(NC3CCOC3)ccc2F)COCC(N)=N1` (stereo partly drawn) [Example 18, (R)-5-[2-Fluoro-5-(tetrahydro-furan-3-ylamino)-phenyl]-5-methyl-5,6-dihydro-2H-[1,4]oxazin-3-ylamine]: the IC50 on BACE1 is 320 nM; on BACE2 it was 3390 nM.

For the compound `C[C@@]1(c2cc(N[C@H]3CCC[C@@H]3O)ccc2F)COCC(N)=N1` [Example 19, (1S,2S)-2-(3-((R)-5-amino-3-methyl-3,6-dihydro-2H-1,4-oxazin-3-yl)-4-fluorophenylamino)cyclopentanol], the IC50 came out at 1210 nM on BACE1 and 3420 nM on BACE2.

On to `C[C@@]1(c2cc(N[C@H]3CCC[C@H]3O)ccc2F)COCC(N)=N1` [Example 20, (1R,2S)-2-(3-((R)-5-amino-3-methyl-3,6-dihydro-2H-1,4-oxazin-3-yl)-4-fluorophenylamino)cyclopentanol], for which the IC50 at BACE1 is 610 nM; on BACE2, 2270 nM.

Turning to `C[C@@]1(c2cc(NCC3CC3)ccc2F)COCC(N)=N1` [Example 21, (R)-5-(5-(cyclopropylmethylamino)-2-fluorophenyl)-5-methyl-5,6-dihydro-2H-1,4-oxazin-3-amine], the IC50 on BACE1 was 130 nM; at BACE2, 279 nM.

For `C[C@@]1(c2cc(NC[C@H]3CCCO3)ccc2F)COCC(N)=N1` [Example 22, (R)-5-(2-fluoro-5-(((R)-tetrahydrofuran-2-yl)methylamino)phenyl)-5-methyl-5,6-dihydro-2H-1,4-oxazin-3-amine], the IC50 on BACE1 amounted to 1110 nM; at BACE2, 2430 nM.

On to `CC(C)C(Nc1ccc(F)c([C@]2(C)COCC(N)=N2)c1)c1ccc(Cl)cn1` (stereo partly drawn) [Example 23, (R)-5-{5-[1-(5-Chloro-pyridin-2-yl)-2-methyl-propylamino]-2-fluoro-phenyl}-5-methyl-5,6-dihydro-2H-[1,4]oxazin-3-ylamine], for which the IC50 was 3710 nM on BACE1 and 1660 nM at BACE2.

Take `CC1(c2cccc(Nc3cccc4cc(Cl)cnc34)c2)COCC(N)=N1` (centres unmarked) [Example 24, [3-(5-Amino-3-methyl-3,6-dihydro-2H-[1,4]oxazin-3-yl)-phenyl]-(3-chloro-quinolin-8-yl)-amine]: the IC50 turned out to be 250 nM on BACE1 and 18 nM on BACE2.

With `C[C@@]1(c2cc(Nc3cccc4cc(Cl)cnc34)ccc2F)COCC(N)=N1` [Example 26, [3-((R)-5-Amino-3-methyl-3,6-dihydro-2H-[1,4]oxazin-3-yl)-4-fluoro-phenyl]-(3-chloro-quinolin-8-yl)-amine], the IC50 on BACE1 worked out at 160 nM; on BACE2 it was 77 nM.

With `C[C@@]1(c2cc(Nc3ccon3)ccc2F)COCC(N)=N1` [Example 33, (R)-5-[2-Fluoro-5-(isoxazol-3-ylamino)-phenyl]-5-methyl-5,6-dihydro-2H-[1,4]oxazin-3-ylamine], the IC50 came out at 580 nM on BACE1 and 1210 nM at BACE2.

On to `C[C@]1(c2cc(NC3CCc4cc(Cl)ccc43)ccc2F)COCC(N)=N1` (stereo partly drawn) [Example 35, (S)-5-[5-(5-Chloro-indan-1-ylamino)-2-fluoro-phenyl]-5-methyl-5,6-dihydro-2H-[1,4]oxazin-3-ylamine], for which the concentration for half-maximal inhibition (IC50) came out at 100 nM on BACE1 and 732 nM on BACE2.

Consider `COc1cnc2c(Nc3cccc(C4(C)COCC(N)=N4)c3)cccc2c1` (centres unmarked) [Example 37, [3-(5-Amino-3-methyl-3,6-dihydro-2H-[1,4]oxazin-3-yl)-phenyl]-(3-methoxy-quinolin-8-yl)-amine], for which the IC50 on BACE2 worked out at 120 nM.

Consider `C[C@@]1(c2cc(NC3CCc4cc(Cl)cnc43)ccc2F)COCC(N)=N1` (stereo partly drawn) [Example 40, [3-((R)-5-Amino-3-methyl-3,6-dihydro-2H-[1,4]oxazin-3-yl)-4-fluoro-phenyl]-(3-chloro-6,7-dihydro-5H-[1]pyrindin-7-yl)-amine], for which the values for the IC50 on BACE1 and at BACE2 were 320 nM and 1100 nM, respectively.

`C[C@@]1(c2cc(Nc3ccccc3OCC(F)F)ccc2F)COCC(N)=N1` [Example 41, (R)-5-{5-[2-(2,2-Difluoro-ethoxy)-phenylamino]-2-fluoro-phenyl}-5-methyl-5,6-dihydro-2H-[1,4]oxazin-3-ylamine]: the values for the IC50 on BACE1 and at BACE2 were 2140 nM and 10 nM, respectively.

Consider `CC1(c2cccc(Nc3cccc4oc(C5CC5)nc34)c2)COCC(N)=N1` (centres unmarked) [Example 46, [3-(5-Amino-3-methyl-3,6-dihydro-2H-[1,4]oxazin-3-yl)-phenyl]-(2-cyclopropyl-benzooxazol-4-yl)-amine], for which the IC50 at BACE2 came to 300 nM.

In the case of “(R)-5-{2-Fluoro-5-[2-(2-fluoro-ethoxy)-phenylamino]-phenyl}-5-methyl-5,6-dihydro-2H-[1,4]oxazin-3-ylamine [Example 43]”, the concentration for half-maximal inhibition (IC50) at BACE1 came to 3200 nM.

By IC50 is commonly meant the concentration needed to halve the response being measured.

These data come from patent publication US9242943B2, “1,4 oxazines as BACE1 and/or BACE2 inhibitors” (SIENA BIOTECH S.P.A., priority 2011, dated 2016).
